Values quoted from earlier work as cited in US20100087382A1, “Inhibitors of Hepatitis C NS3 Protease” (BOEHRINGER INGELHEIM INTERNATIONAL GMBH, priority 2007, published 2010).
Where two headings read alike, the source gives them in different places.

What was measured:
hepatitis C virus [1] = conditions: two day clinical trial, patients infected with hepatitis C virus
hepatitis C virus [2] = conditions: 28- and 14-day clinical trials, in combination with pegylated interferon with or without ribavirin, during treatment

| SMILES | viral load in patients (hepatitis C virus [1]) | viral load in patients (hepatitis C virus [2]) |
| --- | --- | --- |
| COc1ccc2c(O[C@@H]3C[C@H]4C(=O)N[C@]5(C(=O)O)C[C@H]5/C=C\CCCCC[C@H](NC(=O)OC5CCCC5)C(=O)N4C3)cc(-c3csc(NC(C)C)n3)nc2c1 [BILN 2061] | effective in rapidly reducing viral loads |  |
| CCC[C@H](NC(=O)[C@@H]1[C@H]2CCC[C@H]2CN1C(=O)[C@@H](NC(=O)[C@@H](NC(=O)c1cnccn1)C1CCCCC1)C(C)(C)C)C(=O)C(=O)NC1CC1 [VX-950] |  | rapidly decreased to undetectable levels |
